Assay results as given in patent EP1808181A1, “Polysaccharide-cyclodextrin conjugates” (B. BRAUN MELSUNGEN AG, priority 2006, dated 2007).
In brackets after ≈: the same amount, converted by molar mass.

Key:
Humane Erythrozyten = assay: Haemolysis of washed human erythrocytes by cyclodextrin derivatives; assay type: cell-based, menschlicher; conditions: washed human erythrocytes (0,25%), 10 mM isotonic phosphate buffer pH 7,4, 37°C/30 min; read graphically against complete lysis in water; read-out: Cyclodextrin-Konzentration (frei bzw.gebunden) zur halb-maximalen Hämolyse
Experimental: (§1) Die Hämolyserate der in Tabelle III aufgeführten Cyclodextrin-Derivate wurde wie folgt bestimmt. Humane Erythrozyten wurden aus Citratblut durch Zentrifugation gewonnen (1000 x g / 10 Minuten), in 10 mM isotonem Phosphatpuffer (pH 7,4) aufgenommen und dreimal gewaschen und in diesem Puffer auf einen Hämatokrit von 5% eingestellt. Aliquote der gewaschenen Erythrozyten (0,1 ml) wurden zu 4 ml der in der Tabelle 3 aufgelisteten Cyclodextrin-Derivate (jeweils 5 unterschiedliche Konzentrationen) zugegeben, gemischt und 30 Minuten bei 37°C und gelegentlichem leichten Schütteln inkubiert. Nach abermaliger Zentrifugation (1000 x g / 10 Minuten) wurde das freigesetzten Hämoglobin im Überstand spektralphotometrisch bei 543 nm bestimmt. Die Hämolyseraten wurde aus den erhaltenen Absoptionswerten im Vergleich mit einer kompletter […] in Wasser ermittelt und die Cyclodextrin- Konzentrationen mit halbmaximaler Hämolyse graphisch ermittelt.
(§2) Tabelle III : Hämolyse gewaschener menschlicher Erythrozyten (0,25%) in 10 mM isotonem Phosphatpuffer (pH 7,4) bei 37°C/30 Minuten durch Cyclodextrin-Derivate

physchem = conditions: water
[1] = Haemolysis of washed human erythrocytes by cyclodextrin derivatives; assay type: cell-based, menschlicher; conditions: washed human erythrocytes (0,25%), 10 mM isotonic phosphate buffer pH 7,4, 37°C/30 min; read graphically against complete lysis in water; read-out: Cyclodextrin-Konzentration (frei bzw.gebunden) zur halb-maximalen Hämolyse
Experimental: as §1, §2

Compound | HC50 (Humane Erythrozyten) [mM] | further results
2-HP-β-Cyclodextrin | 10 | 
CC(=O)[C@H]1CC[C@H]2[C@@H]3CCC4=CC(=O)CC[C@]4(C)[C@H]3CC[C@]12C [Progesteron] |  | solubility thermodynamic at 72 h (physchem): 15 µg/mL (≈ 47.7 µM)
OC[C@H]1O[C@@H]2O[C@H]3[C@H](O)[C@@H](O)[C@@H](O[C@H]4[C@H](O)[C@@H](O)[C@@H](O[C@H]5[C@H](O)[C@@H](O)[C@@H](O[C@H]6[C@H](O)[C@@H](O)[C@@H](O[C@H]7[C@H](O)[C@@H](O)[C@@H](O[C@H]8[C@H](O)[C@@H](O)[C@@H](O[C@H]1[C@H](O)[C@H]2O)O[C@@H]8CO)O[C@@H]7CO)O[C@@H]6CO)O[C@@H]5CO)O[C@@H]4CO)O[C@@H]3CO [β-Cyclodextrin] |  | HC50 at 0.5 h [1]: 5 mM
α-Cyclodextrin | 11 | 
γ--Cyclodextrin | 30 | 
